Columns and labels:
S. aureus DSM 20231 [1] = assay: fitness (endpoint OD595 vs no drug) (fraction); higher = more growth
How it was run: (§1)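 In 384-well plates at 37 °C, cultures began at OD595 0.01 in 30 µl, with 55 µl used for S. pneumoniae. OD595 readings every 30 min for 14 h were corrected by the first reading. Fitness divides the stationary-phase transition optical density by the robust mean of no-drug control wells. The result is capped at 1.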

S. aureus Newman [2] = assay: as above
How it was run: as §1

S. pneumoniae D39V [3] = assay: as above
How it was run: as §1

B. subtilis 168 = assay: Bliss interaction score (quartile over a dose matrix) (fitness difference); higher = more antagonism (negative = synergy)
How it was run: (§2)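 Fitness was derived from optical density at entry into stationary phase, divided by the robust mean of the no-drug wells on the same plate. That reading was taken as OD595, and the ratio was capped at 1. Single-drug fitness was inferred from the combination data. The Bliss score, observed fitness minus the expected product of single-drug fitness, was summarised as quartiles over technical, biological and donor/recipient replicates.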

S. aureus DSM 20231 [4] = assay: as above
How it was run: as §2

S. aureus Newman [5] = assay: as above
How it was run: as §2

S. pneumoniae D39V [6] = assay: as above
How it was run: as §2
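For Bliss interaction score (quartile over a dose matrix) in this document: first quartile when negative (synergy) and third quartile when positive (antagonism).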

CC1(C)S[C@@H]2[C@H](NC(=O)[C@H](N)c3ccc(O)cc3)C(=O)N2[C@H]1C(=O)O [Amoxicillin] + COc1ccc(C[C@H](N)C(=O)N[C@H]2[C@@H](O)[C@H](n3cnc4c(N(C)C)ncnc43)O[C@@H]2CO)cc1 [Puromycin]
Conditions	fitness
S. aureus DSM 20231 [1], first compound 0.0625 µg/mL, partner 0.39 µg/mL	0.53
S. aureus DSM 20231 [1], first compound 0.0625 µg/mL, partner 0.78 µg/mL	0.566
S. aureus DSM 20231 [1], first compound 0.0625 µg/mL, partner 1.56 µg/mL	0.517
S. aureus DSM 20231 [1], first compound 0.125 µg/mL, partner 0.39 µg/mL	0.397
S. aureus DSM 20231 [1], first compound 0.125 µg/mL, partner 0.78 µg/mL	0.448
S. aureus DSM 20231 [1], first compound 0.25 µg/mL, partner 0.39 µg/mL	0.199
S. aureus DSM 20231 [1], first compound 0.25 µg/mL, partner 0.78 µg/mL	0.133
S. aureus DSM 20231 [1], first compound 0.25 µg/mL, partner 1.56 µg/mL	0.0396
S. aureus Newman [2], first compound 0.0625 µg/mL, partner 0.39 µg/mL	0.874
S. aureus Newman [2], first compound 0.0625 µg/mL, partner 0.78 µg/mL	0.879
S. aureus Newman [2], first compound 0.0625 µg/mL, partner 1.56 µg/mL	0.9
S. aureus Newman [2], first compound 0.125 µg/mL, partner 0.39 µg/mL	0.904
S. aureus Newman [2], first compound 0.125 µg/mL, partner 0.78 µg/mL	0.882
S. aureus Newman [2], first compound 0.125 µg/mL, partner 1.56 µg/mL	0.899
S. aureus Newman [2], first compound 0.25 µg/mL, partner 0.39 µg/mL	0.813
S. pneumoniae D39V [3], first compound 0.0008 µg/mL, partner 1 µg/mL	0.965
S. pneumoniae D39V [3], first compound 0.0008 µg/mL, partner 2 µg/mL	0.953
S. pneumoniae D39V [3], first compound 0.0008 µg/mL, partner 4 µg/mL	0.88
S. pneumoniae D39V [3], first compound 0.0015 µg/mL, partner 1 µg/mL	≥ 1
S. pneumoniae D39V [3], first compound 0.0015 µg/mL, partner 2 µg/mL	≥ 1
S. pneumoniae D39V [3], first compound 0.0015 µg/mL, partner 4 µg/mL	0.954
S. pneumoniae D39V [3], first compound 0.003 µg/mL, partner 1 µg/mL	≥ 1
S. pneumoniae D39V [3], first compound 0.003 µg/mL, partner 2 µg/mL	0.962
S. pneumoniae D39V [3], first compound 0.003 µg/mL, partner 4 µg/mL	0.891

one replicate
Conditions	fitness
S. aureus DSM 20231 [1], first compound 0.0625 µg/mL, partner 3.12 µg/mL	0.58
S. aureus DSM 20231 [1], first compound 0.0625 µg/mL, partner 6.24 µg/mL	0.293
S. aureus DSM 20231 [1], first compound 0.125 µg/mL, partner 3.12 µg/mL	0.417
S. aureus DSM 20231 [1], first compound 0.125 µg/mL, partner 6.24 µg/mL	0.0695
S. aureus DSM 20231 [1], first compound 0.25 µg/mL, partner 3.12 µg/mL	0.0126
S. aureus DSM 20231 [1], first compound 0.25 µg/mL, partner 6.24 µg/mL	0.0079
S. aureus DSM 20231 [1], first compound 0.5 µg/mL, partner 0.39 µg/mL	0.0239
S. aureus DSM 20231 [1], first compound 0.5 µg/mL, partner 0.78 µg/mL	0.0124
S. aureus DSM 20231 [1], first compound 0.5 µg/mL, partner 1.56 µg/mL	0.0417
S. pneumoniae D39V [3], first compound 0.006 µg/mL, partner 1 µg/mL	0.617
S. pneumoniae D39V [3], first compound 0.006 µg/mL, partner 2 µg/mL	0.685
S. pneumoniae D39V [3], first compound 0.006 µg/mL, partner 4 µg/mL	0.612

Conditions	Bliss interaction score
B. subtilis 168	0.0627
S. aureus DSM 20231 [4]	0.0606
S. aureus Newman [5]	0.0595
S. pneumoniae D39V [6]	0.277

CC1(C)S[C@@H]2[C@H](NC(=O)[C@H](N)c3ccc(O)cc3)C(=O)N2[C@H]1C(=O)O [Amoxicillin] + COc1cccc2c1C(=O)c1c(O)c3c(c(O)c1C2=O)C[C@@](O)(C(=O)CO)C[C@@H]3O[C@H]1C[C@H](N)[C@H](O)[C@H](C)O1 [Doxorubicin]
Conditions	fitness
S. aureus DSM 20231 [1], first compound 0.0625 µg/mL, partner 0.625 µg/mL	0.541
S. aureus DSM 20231 [1], first compound 0.0625 µg/mL, partner 1.25 µg/mL	0.511
S. aureus DSM 20231 [1], first compound 0.0625 µg/mL, partner 2.5 µg/mL	0.493
S. aureus DSM 20231 [1], first compound 0.125 µg/mL, partner 0.625 µg/mL	0.443
S. aureus DSM 20231 [1], first compound 0.125 µg/mL, partner 1.25 µg/mL	0.423
S. aureus DSM 20231 [1], first compound 0.125 µg/mL, partner 2.5 µg/mL	0.461
S. aureus DSM 20231 [1], first compound 0.25 µg/mL, partner 0.625 µg/mL	0.187
S. aureus DSM 20231 [1], first compound 0.5 µg/mL, partner 0.625 µg/mL	0.0064
S. aureus DSM 20231 [1], first compound 0.5 µg/mL, partner 1.25 µg/mL	0
S. aureus DSM 20231 [1], first compound 0.5 µg/mL, partner 2.5 µg/mL	0.012
S. aureus Newman [2], first compound 0.0625 µg/mL, partner 0.625 µg/mL	0.756
S. aureus Newman [2], first compound 0.0625 µg/mL, partner 1.25 µg/mL	0.738
S. aureus Newman [2], first compound 0.0625 µg/mL, partner 2.5 µg/mL	0.686
S. aureus Newman [2], first compound 0.125 µg/mL, partner 0.625 µg/mL	0.774
S. aureus Newman [2], first compound 0.125 µg/mL, partner 1.25 µg/mL	0.742
S. aureus Newman [2], first compound 0.125 µg/mL, partner 2.5 µg/mL	0.79
S. aureus Newman [2], first compound 0.25 µg/mL, partner 0.625 µg/mL	0.729
S. aureus Newman [2], first compound 0.25 µg/mL, partner 1.25 µg/mL	0.735
S. aureus Newman [2], first compound 0.25 µg/mL, partner 2.5 µg/mL	0.712
S. pneumoniae D39V [3], first compound 0.0008 µg/mL, partner 0.25 µg/mL	0.961
S. pneumoniae D39V [3], first compound 0.0008 µg/mL, partner 0.5 µg/mL	0.941
S. pneumoniae D39V [3], first compound 0.0008 µg/mL, partner 1 µg/mL	0.882
S. pneumoniae D39V [3], first compound 0.0015 µg/mL, partner 0.25 µg/mL	0.892
S. pneumoniae D39V [3], first compound 0.0015 µg/mL, partner 0.5 µg/mL	0.855
S. pneumoniae D39V [3], first compound 0.0015 µg/mL, partner 1 µg/mL	0.921
S. pneumoniae D39V [3], first compound 0.003 µg/mL, partner 0.25 µg/mL	0.838
S. pneumoniae D39V [3], first compound 0.003 µg/mL, partner 0.5 µg/mL	0.837
S. pneumoniae D39V [3], first compound 0.003 µg/mL, partner 1 µg/mL	0.788

S. pneumoniae D39V [3], first compound 0.006 µg/mL, one replicate
Conditions	fitness
partner 0.25 µg/mL	0.317
partner 0.5 µg/mL	0.314
partner 1 µg/mL	0.399

Conditions	Bliss interaction score
B. subtilis 168	0.0583
S. aureus DSM 20231 [4]	0.0943
S. aureus Newman [5]	-0.0449
S. pneumoniae D39V [6]	-0.071
